{"source": "paper PMC7195821", "about": "(Cell Discovery, 2020)", "key": {"[1]": {"system": "SARS-CoV-2", "experiment": "Antiviral activity against SARS-CoV-2 in Vero E6 cells, qRT-PCR of virus yield in supernatant at 48 h p.i.", "type": "cell-based", "details": "for anti-SARS-CoV-2 activity (in words): up to the highest drug concentrations; for EC50: Severe acute respiratory syndrome coronavirus 2, Vero C1008, 48 h, read-out: 50% maximal effective concentration (EC50)"}, "[2]": {"system": "SARS-CoV-2", "details": "cited from earlier work"}, "[3]": {"experiment": "Cytotoxicity by cell counting kit-8 (CCK8) assay", "details": "African green monkey"}, "[4]": {"system": "SARS-CoV", "details": "cited from earlier work"}, "[5]": {"system": "SARS-CoV-2 NP expression", "experiment": "Time-of-addition experiment, viral NP expression by western blot", "type": "cell-based", "details": "arbidol 10 μM, 16 h p.i.", "experimental": "(§1) The antiviral efficacy was evaluated in Vero E6 cells by qRT-PCR analysis of virus yield at 48 h p.i. Data represent the mean ± standard deviation (SD) from two independent repeats. b, c Time-of-addition experiment of arbidol. Three experimental groups (Full-time, Entry, and Post-entry) were set up as described in the Supplementary Methods. At 16 h p.i., virus yield in the cell supernatant was quantified by qRT-PCR (b), and the expression of NP in infected cells was analyzed by western blots (c). […] The co-localization of virions with EEs or LEs was analyzed by immunofluorescence assays as described in the Supplementary Methods. e The portion of virions that co-localized with EEs or ELs in each group (n > 150 cells) was quantified by Image J. f Representative confocal microscopic images of virions (red) and LAMP1^+ ELs (green) in each group. The nuclei (blue) were stained with Hoechst 33258 dye. White arrows: virions co-localized with ELs; bars: 10 μm. For (b) and (e), statistical analysis was performed using a one-way analysis of variance (ANOVA) with GraphPad Prism. For (d), statistical analysis was performed and calculated by unpaired two-tailed t test. *P < 0.05; ***P < 0.001; ns, not significant.\nArbidol was incubated with cells during the virus entry process (Entry), the post-entry stages (Post-entry), or the entire process of infection (Full-time) and progeny virus yield was quantified by qRT-PCR.\nViral RNA/DNA Extraction Kit; Takara, CAT No. 9766). Three microliter out of 30 μL total eluted RNA was used for cDNA synthesis with a PrimeScript RT Reagent Kit with gDNA Eraser (Takara, CAT No. RR047A). The qRT-PCR was performed with TB Green Premix Ex Taq II (Takara, CAT No. RR820A) on a StepOne Plus Real-time PCR system (AB). The primers used for qRT-PCR were RBD-qF1: […]\nRBD-qR1:5’-[…]-3’. The experiments were performed in triplicate with two independent repeats and the data represent the mean ± SD from […]\nTime-of-addition experiment […]\nAt 16 h p.i., virus production in the culture supernatants was quantified by qRT -PCR. […]"}, "[6]": {"system": "SARS-CoV-2", "experiment": "Time-of-addition experiment, virus yield by qRT-PCR", "type": "cell-based", "experimental": "as §1, with “For (b) and (e), statistical analysis was performed using a one-way analysis of variance (ANOVA) with GraphPad Prism.” left out\nArbidol was incubated with cells during the virus entry process (Entry), the post-entry stages (Post-entry), or the entire process of infection (Full-time) and progeny virus yield was quantified by qRT-PCR. […]\nAt 16 h p.i., virus production in the culture supernatants was quantified by qRT -PCR."}, "[7]": {"system": "SARS-CoV-2", "experiment": "Cytopathic effects (CPE) and immunofluorescence staining of infected cells", "type": "cell-based", "details": "Vero E6 cells, 48 h p.i., MOI 0.05"}, "[8]": {"system": "influenza viruses", "details": "read-out: EC50 against different influenza viruses; cited from earlier work"}, "[9]": {"system": "COVID-19 patients", "parameters": "method as in PMID 32176772", "details": "retrospective study; cited from earlier work"}, "[10]": {"details": "humans, single oral administration of 800 mg; cited from earlier work"}, "[11]": {"system": "SARS-CoV-2 binding", "experiment": "Virus binding assay on Vero E6 cells at 4 °C, qRT-PCR", "type": "cell-based", "details": "arbidol 10 μM, 4 °C for 1 h, MOI 0.05, P < 0.001"}, "[12]": {"system": "SARS-CoV-2 virions", "experiment": "Intracellular trafficking: co-localization of virions with EEs or ELs by immunofluorescence", "type": "cell-based", "details": "arbidol 10 μM, MOI 5"}}, "note": "Structures can show the parent of a compound that is named as a salt."}
{"smiles": "CCC(CC)[C@H](NC(C)=O)[C@@H]1[C@H](O)[C@@H](C(=O)O)C[C@H]1N=C(N)N.O.O.O", "note": "[Peramivir, Peramivir Trihydrate]", "values": [{"measurement": "anti-SARS-CoV-2 activity (in words)", "setting": "[1]; Vero E6 cells", "result": "did not exhibit anti-SARS-CoV-2 activity"}]}
{"smiles": "COC(=O)OCOc1c2n(ccc1=O)N([C@@H]1c3ccccc3SCc3c1ccc(F)c3F)[C@@H]1COCCN1C2=O", "note": "[Baloxavir, Baloxavir marboxil]", "values": [{"measurement": "anti-SARS-CoV-2 activity (in words)", "setting": "[1]; Vero E6 cells", "result": "failed to block SARS-CoV-2 infection"}, {"measurement": "inhibition of SARS-CoV-2 infection", "setting": "[1]; at 50 μM, Vero E6 cells, 48 h p.i.", "result": "~ 29%"}, {"measurement": "inhibition of SARS-CoV-2 in vitro (in words)", "setting": "[2]; ref 11 (Choy et al.)", "result": "failed to inhibit"}]}
{"smiles": "NC(=O)c1nc(F)c[nH]c1=O", "note": "[favipiravir]", "values": [{"measurement": "efficacy against SARS-CoV-2 in vitro (in words)", "setting": "[2]", "result": "showed a certain efficacy"}]}
{"smiles": "[H]/N=C(\\N)N[C@H]1C=C(C(=O)O)O[C@@H]([C@H](OC)[C@H](O)CO)[C@@H]1NC(C)=O", "note": "[Laninamivir]", "values": [{"measurement": "EC50", "setting": "[1]", "result": "> 30", "unit": "µM"}, {"measurement": "anti-SARS-CoV-2 activity (in words)", "setting": "[1]; Vero E6 cells", "result": "did not exhibit anti-SARS-CoV-2 activity"}, {"measurement": "CC50 at 24 h", "setting": "[3]", "result": "> 100", "unit": "µM"}]}
{"smiles": "CC(=O)N[C@H]1[C@H]([C@H](O)[C@H](O)CO)OC(C(=O)O)=C[C@@H]1N=C(N)N", "note": "[Zanamivir]", "values": [{"measurement": "EC50", "setting": "[1]", "result": "> 100", "unit": "µM"}, {"measurement": "anti-SARS-CoV-2 activity (in words)", "setting": "[1]; Vero E6 cells", "result": "did not exhibit anti-SARS-CoV-2 activity"}, {"measurement": "CC50 at 24 h", "setting": "[3]", "result": "> 100", "unit": "µM"}, {"measurement": "inhibition of SARS-CoV (in words)", "setting": "[4]", "result": "ineffective"}]}
{"smiles": "CCOC(=O)c1c(CSc2ccccc2)n(C)c2cc(Br)c(O)c(CN(C)C)c12", "note": "[arbidol, Arbidol hydrochloride]", "values": [{"measurement": "expression level of viral NP (NP/GAPDH), % of the DMSO group, Entry", "setting": "[5]; Entry stage", "result": 41, "unit": "%"}, {"measurement": "expression level of viral NP (NP/GAPDH), % of the DMSO group, Full-time", "setting": "[5]; Full-time", "result": 13, "unit": "%"}, {"measurement": "expression level of viral NP (NP/GAPDH), % of the DMSO group, Post-entry", "setting": "[5]; Post-entry stage", "result": 61, "unit": "%"}, {"measurement": "inhibition at 10 µM", "setting": "[6]; Severe acute respiratory syndrome coronavirus 2, 16 h, read-out: inhibition rate of virus yield, Post-entry", "result": "~55", "unit": "%"}, {"measurement": "inhibition of virus yield, Entry", "setting": "[6]; arbidol 10 μM during virus entry, MOI 0.05, 16 h p.i.", "result": "~ 75%"}, {"measurement": "viral NP expression and CPE due to SARS-CoV-2", "setting": "[7]", "result": "substantially reduced"}, {"measurement": "EC50", "setting": "[8]", "result": "2.5 to 20", "unit": "µM"}, {"measurement": "discharging rate and mortality rate of COVID-19 patients (in words)", "setting": "[9]", "result": "tendency to improve the discharging rate and decrease the mortality rate"}, {"measurement": "Cmax", "setting": "[10]", "result": "~4.1", "unit": "µM"}, {"measurement": "portion of unbound virions, % of the control group", "setting": "[11]", "result": 156, "unit": "%"}, {"measurement": "virions co-localized with EEs", "setting": "[12]; 30 min p.i., DMSO 24.0%", "result": 21.4, "unit": "%"}, {"measurement": "virions co-localized with EEs", "setting": "[12]; 60 min p.i., DMSO 5.1%", "result": 4.1, "unit": "%"}, {"measurement": "virions co-localized with ELs", "setting": "[12]; 60 min p.i., DMSO 18.3%, P < 0.05", "result": 22.4, "unit": "%"}, {"measurement": "virions co-localized with EEs", "setting": "[12]; 90 min p.i., DMSO 3.2%", "result": 2.8, "unit": "%"}, {"measurement": "virions co-localized with ELs", "setting": "[12]; 90 min p.i., DMSO ~13.5%, P < 0.001", "result": "~ 23.6%"}]}
